# Measurements: patent US11730817B2, “Pro-cyclic dinucleotides and pro-cyclic dinucleotide conjugates for cytokine induction” (INVIVOGEN, priority 2017, dated 2023)
# pEC50: −log10 of the molar value.
# Biological target: STING (Homo sapiens, UniProt Q86WV6, G230A/H232R/R293Q/R71H)
# Experiment: ISG54 (IRF pathway) reporter assay in THP1-Dual cells
# Details: for EC50 rank order (lipid chain length): FIG. 6, human or murine reporter cell
# Chain of STING (Q86WV6 whole entry R71H/G230A/H232R/R293Q): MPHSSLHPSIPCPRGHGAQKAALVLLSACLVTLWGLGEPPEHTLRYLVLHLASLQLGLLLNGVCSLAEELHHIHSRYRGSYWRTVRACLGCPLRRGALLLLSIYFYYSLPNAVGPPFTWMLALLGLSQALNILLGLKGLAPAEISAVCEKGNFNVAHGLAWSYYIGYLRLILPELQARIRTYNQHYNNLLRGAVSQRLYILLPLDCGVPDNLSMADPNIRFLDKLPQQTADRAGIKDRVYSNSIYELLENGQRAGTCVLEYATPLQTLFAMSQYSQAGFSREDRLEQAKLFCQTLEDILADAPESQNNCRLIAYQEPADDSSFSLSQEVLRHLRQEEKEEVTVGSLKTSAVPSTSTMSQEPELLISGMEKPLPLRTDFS
Compound,Fold ISG induction vs unstimulated @10 μM (THP1-Dual cells),other results
"Nc1ncnc2c1ncn2[C@@H]1O[C@@H]2COP(=O)(S)O[C@H]3C[C@H](n4cnc5c(=O)[nH]cnc54)O[C@@H]3COP(=O)(O)O[C@H]2[C@H]1F (stereo partly shown) [CL797, reference compound]",181 fold,pEC50: 5.09
CC(C)[C@H](N)C(=O)N[C@@H](C)C(=O)Nc1ccc(CSP2(=O)OC[C@H]3O[C@@H](n4cnc5c(N)ncnc54)[C@H](F)[C@@H]3OP(=O)(O)OC[C@H]3O[C@@H](n4cnc5c(O)ncnc54)C[C@@H]3O2)cc1 (stereo partly shown) [CL819],,EC50 rank order (lipid chain length): EC50 (CL819=C2-CL797)=EC50 (CL797)
CCCC(=O)N[C@H](C(=O)N[C@@H](C)C(=O)Nc1ccc(CSP2(=O)OC[C@H]3O[C@@H](n4cnc5c(N)ncnc54)[C@H](F)[C@@H]3OP(=O)(O)OC[C@H]3O[C@@H](n4cnc5c(O)ncnc54)C[C@@H]3O2)cc1)C(C)C (stereo partly shown) [CL820],,EC50 rank order (lipid chain length): EC50 (CL820=C4-CL797)=EC50 (CL819=C2-CL797)=EC50 (CL797)
CC(C)[C@H](NC(=O)COCCOCCNC(=O)COCCOCCNC(=O)COCCOCCNC(=O)COCCOCCN)C(=O)N[C@H](C)C(=O)Nc1ccc(CSP2(=O)OC[C@H]3O[C@@H](n4cnc5c(N)ncnc54)[C@H](F)[C@@H]3OP(=O)(O)OC[C@H]3O[C@@H](n4cnc5c(O)ncnc54)C[C@@H]3O2)cc1 (stereo partly shown) [CL822],29 fold,
COC(=O)C1O[C@@H](Oc2ccc(CSP3(=O)OC[C@H]4O[C@@H](n5cnc6c(N)ncnc65)[C@H](F)[C@@H]4OP(=O)(O)OC[C@H]4O[C@@H](n5cnc6c(O)ncnc65)C[C@@H]4O3)cc2[N+](=O)[O-])C(OC(C)=O)C(OC(C)=O)[C@@H]1OC(C)=O (stereo partly shown) [CL831],6 fold,
CC(C)[C@H](NC(=O)CCCCCN1C(=O)C=CC1=O)C(=O)N[C@@H](C)C(=O)Nc1ccc(CSP2(=O)OC[C@H]3O[C@@H](n4cnc5c(N)ncnc54)[C@H](F)[C@@H]3OP(=O)(O)OC[C@H]3O[C@@H](n4cnc5c(O)ncnc54)C[C@@H]3O2)cc1 (stereo partly shown) [CL843],16 fold,
"Nc1ncnc2c1ncn2[C@@H]1OC2COP(=O)(S)O[C@@H]3C(COP(=O)(O)O[C@H]2[C@H]1F)O[C@@H](n1cnc2c(=O)[nH]cnc21)[C@@H]3F (stereo partly shown) [CL845, reference compound]",227 fold,pEC50: 5.34
COC(=O)C1O[C@@H](Oc2ccc(CSP3(=O)OC[C@H]4O[C@@H](n5cnc6c(=O)[nH]cnc65)[C@H](F)[C@@H]4OP(=O)(O)OC[C@H]4O[C@@H](n5cnc6c(N)ncnc65)[C@H](F)[C@@H]4O3)cc2NC(=O)CCCCCN2C(=O)C=CC2=O)C(OC(C)=O)C(OC(C)=O)[C@@H]1OC(C)=O (stereo partly shown) [CL847],132 fold,
CC(C)[C@H](NC(=O)[C@@H](CN)N1C(=O)C=CC1=O)C(=O)N[C@@H](C)C(=O)Nc1ccc(CSP2(=O)OC[C@H]3O[C@@H](n4cnc5c(N)ncnc54)[C@H](F)[C@@H]3OP(=O)(S)OC[C@H]3O[C@@H](n4cnc5c(O)ncnc54)[C@H](F)[C@@H]3O2)cc1 (stereo partly shown) [CL874],156 fold,% activity (vs cGAMP): 297%; ISG activity (THP1-Dual cells): retains full 15G activity
